These results are taken from ChEMBL document CHEMBL1154540, “Synthesis of 10-substituted triazolyl artemisinins possessing anticancer activity via Huisgen 1,3-dipolar cylcoaddition” (2009).

One assay deals with DLD-1. The assay is described as follows: Cytotoxicity against human DLD1 cells after 72 hrs by MTT colorimetric assay. Type of assay: functional. Conditions: DLD-1, 72 h.
Assay [1] is described as follows: Cytotoxicity against human U87 cells after 72 hrs by MTT colorimetric assay. The format is functional, U-87MG ATCC. Conditions: U-87 MG. (In general: Tetrazolium assays rely on reduction of a dye to a coloured formazan, in cell work by metabolically active cells.)
The subject of a further assay is HeLa. The assay is described as follows: Cytotoxicity against human HeLa cells after 72 hrs by MTT colorimetric assay. Type of assay: functional.
Another assay relates to SiHa. The experiment in a line: Cytotoxicity against human SiHa cells after 72 hrs by MTT colorimetric assay. Type of assay: functional.
Assay [2] in a line: Cytotoxicity against human A172 cells after 72 hrs by MTT colorimetric assay. The format is functional. The following applies: A 172, 72 h.
The test system of the next assay is B16. The assay is described as follows: Cytotoxicity against mouse B16 cells after 72 hrs by MTT colorimetric assay. Type of assay: functional. Conditions: B16, 72 h.

By GI50 is commonly meant the concentration that inhibits growth by half. High values mean less potent growth inhibition, low ones more potent growth inhibition.

For `C[C@H]1[C@H](n2cc(-c3ccc(F)cc3)nn2)O[C@@H]2O[C@@]3(C)CC[C@H]4[C@H](C)CC[C@@H]1[C@@]24OO3`, the concentration for 50% growth inhibition (GI50) in the assay on DLD-1 came to 0.14 µM; in assay [1], 340 nM; with HeLa, 600 nM; in the assay with SiHa, 350 nM; in assay [2], 420 nM; in the assay on B16, 430 nM.
Turning to `C[C@H]1[C@H](N=[N+]=[N-])O[C@@H]2O[C@@]3(C)CC[C@H]4[C@H](C)CC[C@@H]1[C@@]24OO3`, the 50% growth inhibitory concentration (GI50) is greater than 50 µM in the assay with DLD-1; 1060 nM in assay [1]; 1930 nM in the assay with HeLa; 1470 nM in the assay with SiHa; 890 nM in assay [2]; 1560 nM with B16.
Regarding `C[C@H]1[C@H](n2cc(-c3ccccc3)nn2)O[C@@H]2O[C@@]3(C)CC[C@H]4[C@H](C)CC[C@@H]1[C@@]24OO3`, the 50% growth inhibitory concentration (GI50) with DLD-1 came to 12.1 µM; in assay [1], 430 nM; in the assay with HeLa it was 210 nM; with SiHa, 540 nM; in assay [2], 450 nM; in the assay on B16 it was 1250 nM.
In the case of `C[C@H]1[C@H](n2cc(-c3cccc(Cl)c3)nn2)O[C@@H]2O[C@@]3(C)CC[C@H]4[C@H](C)CC[C@@H]1[C@@]24OO3`, the GI50 with DLD-1 was determined as 14.2 µM; in assay [1], 160 nM; in the assay on HeLa, 80 nM; with SiHa, 150 nM; in assay [2] it was 370 nM; in the assay with B16, 60 nM.
On to `Cc1ccc(-c2cn([C@@H]3O[C@@H]4O[C@@]5(C)CC[C@H]6[C@H](C)CC[C@@H]([C@H]3C)[C@@]46OO5)nn2)cc1`, for which the 50% growth inhibitory concentration (GI50) in the assay on DLD-1 worked out at 0.08 µM; in assay [1] it was 110 nM; in the assay on HeLa, 50 nM; with SiHa, 150 nM; in assay [2], 330 nM; with B16, 240 nM.
As to `COc1ccc(-c2cn([C@@H]3O[C@@H]4O[C@@]5(C)CC[C@H]6[C@H](C)CC[C@@H]([C@H]3C)[C@@]46OO5)nn2)cc1`, the GI50 is 6.68 µM in the assay on DLD-1; 1220 nM in assay [1]; 560 nM in the assay on HeLa; 350 nM in the assay on SiHa; 1210 nM in assay [2]; 900 nM in the assay on B16.
On to `CCCCCc1ccc(-c2cn([C@@H]3O[C@@H]4O[C@@]5(C)CC[C@H]6[C@H](C)CC[C@@H]([C@H]3C)[C@@]46OO5)nn2)cc1`, for which the GI50 worked out at 0.03 µM in the assay on DLD-1; 80 nM in assay [1]; 30 nM in the assay on HeLa; 90 nM with SiHa; 100 nM in assay [2]; 80 nM in the assay on B16.
For `C[C@H]1[C@@H](N=[N+]=[N-])O[C@@H]2O[C@@]3(C)CC[C@H]4[C@H](C)CC[C@@H]1[C@@]24OO3`, the 50% growth inhibitory concentration (GI50) in the assay on DLD-1 is 9.44 µM; in assay [1], 1970 nM; in the assay on HeLa, 490 nM; with SiHa, 1130 nM; in assay [2] it was 2310 nM; with B16, greater than 50000 nM.
On to `C=C(C)c1cn([C@@H]2O[C@@H]3O[C@@]4(C)CC[C@H]5[C@H](C)CC[C@@H]([C@H]2C)[C@@]35OO4)nn1`, for which the GI50 is 23 µM in the assay with DLD-1; 830 nM in assay [1]; 310 nM in the assay on HeLa; 1130 nM in the assay with SiHa; 1310 nM in assay [2]; 1320 nM in the assay with B16.
For the molecule `CC(=O)O[C@H]1C(=O)[C@@]2(C)[C@H]([C@H](OC(=O)c3ccccc3)[C@]3(O)C[C@H](OC(=O)[C@H](O)[C@@H](NC(=O)c4ccccc4)c4ccccc4)C(C)=C1C3(C)C)[C@]1(OC(C)=O)CO[C@@H]1C[C@@H]2O` [PACLITAXEL], the concentration for 50% growth inhibition (GI50) in the assay on DLD-1 is 0.01 µM; in assay [1], 20 nM; in the assay with HeLa it was 20 nM; in the assay with SiHa, 30 nM; in assay [2] it was 10 nM; in the assay on B16 it was 10 nM.
Regarding `C[C@@H]1[C@@H](N=[N+]=[N-])O[C@@H]2O[C@@]3(C)CC[C@H]4[C@H](C)CC[C@@H]1[C@@]24OO3`, the GI50 was greater than 50 µM with DLD-1; 11200 nM in assay [1]; greater than 50000 nM with HeLa; 9070 nM with SiHa; 16800 nM in assay [2]; greater than 50000 nM in the assay on B16.
On to `C[C@H]1[C@@H](n2cc(-c3ccccc3)nn2)O[C@@H]2O[C@@]3(C)CC[C@H]4[C@H](C)CC[C@@H]1[C@@]24OO3`, for which the GI50 with DLD-1 stood at 0.52 µM; in assay [1] it was 230 nM; in the assay with HeLa, 130 nM; with SiHa it was 260 nM; in assay [2], 220 nM; in the assay on B16, 300 nM.
With `C[C@@H]1[C@@H](n2cc(-c3ccccc3)nn2)O[C@@H]2O[C@@]3(C)CC[C@H]4[C@H](C)CC[C@@H]1[C@@]24OO3`, the GI50 worked out at 29.7 µM with DLD-1; 2860 nM in assay [1]; 720 nM with HeLa; 3220 nM in the assay with SiHa; 2500 nM in assay [2]; 8780 nM in the assay on B16.
In the case of `C[C@H]1[C@H](n2cc(-c3cc(F)cc(F)c3)nn2)O[C@@H]2O[C@@]3(C)CC[C@H]4[C@H](C)CC[C@@H]1[C@@]24OO3`, the GI50 in the assay with DLD-1 is 22.9 µM; in assay [1], 140 nM; with HeLa, 140 nM; in the assay with SiHa it was 200 nM; in assay [2], 290 nM; in the assay on B16, 160 nM.
